Source: paper PMC10112938 (Hypertension (Dallas, Tex. : 1979), 2023)

Assays:
adenosine A2B receptor [1] = biological target: T1, adenosine A2B receptor (Homo sapiens, UniProt P29275); experiment: HTRF […]', […]'-cAMP assay in HEK293 cells expressing human A2B receptors; type: cell-based
T1 sequence (P29275 1-332): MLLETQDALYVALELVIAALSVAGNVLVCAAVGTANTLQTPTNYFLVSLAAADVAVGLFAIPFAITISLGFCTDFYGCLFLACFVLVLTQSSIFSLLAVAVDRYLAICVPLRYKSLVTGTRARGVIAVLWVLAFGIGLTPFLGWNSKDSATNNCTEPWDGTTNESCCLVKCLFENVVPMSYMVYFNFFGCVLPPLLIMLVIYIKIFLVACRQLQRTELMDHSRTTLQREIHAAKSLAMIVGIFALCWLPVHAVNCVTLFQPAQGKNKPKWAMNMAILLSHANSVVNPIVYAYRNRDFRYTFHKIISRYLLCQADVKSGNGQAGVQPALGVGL

adenosine A2B receptor [2] = biological target: T1, adenosine A2B receptor; experiment: as above; type: cell-based; remark: listed apart in the source

| Compound | HTRF 3',5'-cAMP assay in HEK293 cells expressing human A2B receptors; response a (adenosine A2B receptor [1]) | HTRF 3',5'-cAMP assay in HEK293 cells expressing human A2B receptors; antagonism (adenosine A2B receptor [2]) |
| --- | --- | --- |
| O=c1[nH]cnc2c1ncn2[C@@H]1O[C@H](CO)[C@@H](O)[C@H]1O [inosine] | 3 to 10 µmol/L | – |
| CCCn1c(=O)c2[nH]c(-c3ccc(OCC(=O)Nc4ccc(C#N)cc4)cc3)nc2n(CCC)c1=O [MRS 1754] | – | 1 µmol/L |
